Measurements: ChEMBL document CHEMBL3862010, “N-Arylsulfonyl-α-amino carboxamides are potent and selective inhibitors of the chemokine receptor CCR10 that show efficacy in the murine DNFB model of contact hypersensitivity” (Bioorg Med Chem Lett, 2016)

Tests used:
[1] = target: T1, C-C chemokine receptor type 10 (Homo sapiens, UniProt P46092); assay: Antagonist activity at human CCR10 expressed in HEK cells assessed as inhibition of human CCL27-dependent cAMP production; format: functional, cell-based, HEK293
T1 sequence (P46092 whole entry): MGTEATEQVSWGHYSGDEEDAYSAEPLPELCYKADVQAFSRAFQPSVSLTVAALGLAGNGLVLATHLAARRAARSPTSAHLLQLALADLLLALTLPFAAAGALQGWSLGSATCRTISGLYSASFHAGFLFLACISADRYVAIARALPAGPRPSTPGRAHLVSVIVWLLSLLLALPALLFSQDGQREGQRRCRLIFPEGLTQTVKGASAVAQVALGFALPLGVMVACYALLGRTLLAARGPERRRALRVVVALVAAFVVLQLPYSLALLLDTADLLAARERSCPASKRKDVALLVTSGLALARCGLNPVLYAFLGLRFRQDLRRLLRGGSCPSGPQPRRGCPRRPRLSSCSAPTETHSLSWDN

[2] = target: T1, C-C chemokine receptor type 10; assay: Antagonist activity at human CCR10 expressed in CHOK1 cells coexpressing aequorin/Galphaq assessed as inhibition of human CCL28-dependent calcium flux by FLIPR assay; format: functional, cell-based, CHO-K1
[3] = Half life in mouse liver microsomes; format: ADME
[4] = target: C-X-C chemokine receptor type 2 (Homo sapiens, UniProt P25025); assay: Antagonist activity at human CXCR2 assessed as inhibition of GROalpha-induced calcium flux; format: functional
[5] = Clearance in mouse liver microsomes relative to hepatic blood flow; format: ADME; settings: read-out: CLH
[6] = target: C-C chemokine receptor type 2 (Homo sapiens, UniProt P41597); assay: Antagonist activity at human CCR2 assessed as inhibition of MCP1-induced calcium flux; format: functional
[7] = target: C-C chemokine receptor type 1 (Homo sapiens, UniProt P32246); assay: Antagonist activity at human CCR1 assessed as inhibition of MIP1alpha-induced calcium flux; format: functional
Histamine H4 receptor = Histamine H4 receptor (Homo sapiens, UniProt Q9H3N8); assay: Antagonist activity at human histamine H4 receptor assessed as inhibition of histamine-induced calcium flux; format: functional
[8] = target: C-C chemokine receptor type 5 (Homo sapiens, UniProt P51681); assay: Antagonist activity at human CCR5 assessed as inhibition of RANTES-induced calcium flux; format: functional
[9] = target: T1, C-C chemokine receptor type 10; assay: Antagonist activity at human CCR10 expressed in CHOK1 cells coexpressing aequorin/Galphaq assessed as inhibition of human CCL27-dependent calcium flux in presence of coelenterazine H by chemiluminescence assay; format: functional, cell-based, CHO-K1; settings: read-out: pIC50 (converted)
[10] = target: T2, C-C chemokine receptor type 10 (Mus musculus, UniProt Q9JL21); assay: Antagonist activity at mouse CCR10 expressed in CHOK1 cells coexpressing aequorin/Galphaq assessed as inhibition of CCL27-dependent calcium flux in presence of coelenterazine H by chemiluminescence assay; format: functional, cell-based, CHO-K1
T2 sequence (Q9JL21 whole entry): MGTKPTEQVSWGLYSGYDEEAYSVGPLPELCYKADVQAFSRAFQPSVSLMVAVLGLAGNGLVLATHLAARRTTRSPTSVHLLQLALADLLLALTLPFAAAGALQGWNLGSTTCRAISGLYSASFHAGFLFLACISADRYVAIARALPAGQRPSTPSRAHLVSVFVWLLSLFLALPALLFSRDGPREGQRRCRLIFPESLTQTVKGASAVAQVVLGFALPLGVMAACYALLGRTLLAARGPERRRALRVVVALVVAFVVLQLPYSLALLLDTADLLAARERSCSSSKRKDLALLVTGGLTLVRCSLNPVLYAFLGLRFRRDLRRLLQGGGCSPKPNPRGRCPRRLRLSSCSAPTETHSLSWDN

[11] = target: C-X-C chemokine receptor type 3 (Homo sapiens, UniProt P49682); assay: Antagonist activity at human CXCR3 assessed as inhibition of IP10-induced calcium flux; format: functional
[12] = target: T1, C-C chemokine receptor type 10; assay: Antagonist activity at human CCR10 expressed in HEK cell membranes assessed as inhibition of human CCL27-dependent europium-labeled GTP binding; parameters: species or system HEK293
[13] = target: T1, C-C chemokine receptor type 10; assay: Antagonist activity at human CCR10 expressed in CHOK1 cells coexpressing aequorin/Galphaq assessed as inhibition of human CCL28-dependent calcium flux by chemiluminescence assay; format: functional, cell-based, CHO-K1
[14] = target: T1, C-C chemokine receptor type 10; assay: Antagonist activity at human CCR10 expressed in CHOK1 cells coexpressing aequorin/Galphaq assessed as inhibition of CCL27-dependent calcium flux in presence of coelenterazine H by FLIPR assay; format: functional, cell-based, CHO-K1
[15] = target: Type-1 angiotensin II receptor (Homo sapiens) (UniProt P30556); assay: Binding affinity to human AT1 receptor at 10 uM relative to control
Mus musculus [16] = assay: Antiinflammatory activity in Balb/C mouse model of contact hypersensitivity assessed as inhibition of DNFB-stimulated ear swelling administered ip bid at 0 and 8 hrs measured 24 hrs post DNFB stimulation; format: functional, organism-based
[17] = target: Adrenergic receptor alpha-1 (Rattus norvegicus) (UniProt P15823+P23944+P43140); assay: Binding affinity to rat adrenergic alpha1 receptor at 10 uM relative to control
[18] = target: D(1A) dopamine receptor (Homo sapiens) (UniProt P21728); assay: Binding affinity to human dopamine D1 receptor at 10 uM relative to control
[19] = target: Histamine H2 receptor (Homo sapiens) (UniProt P25021); assay: Binding affinity to human histamine H2 receptor at 10 uM relative to control
[20] = target: B2 bradykinin receptor (Homo sapiens) (UniProt P30411); assay: Binding affinity to human B2 bradykinin receptor at 10 uM relative to control
Rattus norvegicus [21] = species: Rattus norvegicus; assay: Binding affinity to rat GABA-B receptor at 10 uM relative to control
Homo sapiens [22] = species: Homo sapiens; assay: Binding affinity to human IL-8 receptor at 10 uM relative to control
[23] = target: C-C chemokine receptor type 4 (Homo sapiens) (UniProt P51679); assay: Antagonist activity at human CCR4 assessed as inhibition of CCL22-induced calcium flux at 10 uM relative to control; format: functional
[24] = target: 5-hydroxytryptamine receptor 2A (Rattus norvegicus) (UniProt P14842); assay: Binding affinity to rat 5-HT2 receptor at 10 uM relative to control
[25] = target: D(2) dopamine receptor (Homo sapiens) (UniProt P14416); assay: Binding affinity to human dopamine D2L receptor at 10 uM relative to control
[26] = target: Adrenergic receptor alpha-2 (Rattus norvegicus) (UniProt P22086+P19328+P22909); assay: Binding affinity to rat adrenergic alpha2 receptor at 10 uM relative to control
[27] = target: Histamine H1 receptor (Homo sapiens) (UniProt P35367); assay: Binding affinity to human histamine H1 receptor at 10 uM relative to control
Homo sapiens [28] = species: Homo sapiens; assay: Binding affinity to human nicotinic acetylcholine receptor at 10 uM relative to control
Rattus norvegicus [29] = species: Rattus norvegicus; assay: Binding affinity to rat glutamate receptor at 10 uM relative to control
Rattus norvegicus [30] = species: Rattus norvegicus; assay: Binding affinity to rat 5-HT1 receptor at 10 uM relative to control
[31] = target: Adrenergic receptor beta (Rattus norvegicus) (UniProt P18090+P10608+P26255); assay: Binding affinity to rat adrenergic beta receptor at 10 uM relative to control
[32] = target: D(3) dopamine receptor (Homo sapiens) (UniProt P35462); assay: Binding affinity to human dopamine D3 receptor at 10 uM relative to control
Rattus norvegicus [33] = species: Rattus norvegicus; assay: Binding affinity to rat muscarinic acetylcholine receptor at 10 uM relative to control
[34] = target: 5-hydroxytryptamine receptor 3A (Homo sapiens) (UniProt P46098); assay: Binding affinity to human 5-HT3 receptor at 10 uM relative to control
Rattus norvegicus [35] = species: Rattus norvegicus; assay: Binding affinity to rat GABA-A receptor at 10 uM relative to control
[36] = Plasma concentration in Balb/C mouse at 100 mg/kg, ip bid measured after 7 hrs; format: ADME, organism-based
[37] = Plasma concentration in Balb/C mouse at 30 mg/kg, ip bid measured after 1 hr; format: ADME, organism-based; settings: Balb/C, plasma
[38] = Time at which plasma concentration stays near or above in vitro murine IC50 level in Balb/C mouse at 100 mg/kg, ip bid; format: ADME, organism-based; settings: in vivo
Mus musculus [39] = assay: Antiinflammatory activity in Balb/C mouse model of contact hypersensitivity assessed as inhibition of DNFB-stimulated ear swelling at 100 mg/kg, ip bid administered at 0 and 8 hrs measured 24 hrs post DNFB stimulation; format: functional
[40] = target: C-C chemokine receptor type 6 (Homo sapiens, UniProt P51684); assay: Antagonist activity at human CCR6 assessed as inhibition of CCL20/MIP-3alpha-induced calcium flux; format: functional
[41] = Plasma concentration in Balb/C mouse at 100 mg/kg, ip bid measured after 1 hr; format: ADME, organism-based; settings: in vivo
[42] = Protein binding in Balb/C mouse plasma at 100 mg/kg, ip bid; format: ADME, organism-based; settings: Balb/C, plasma, read-out: PPB
[43] = target: T1, C-C chemokine receptor type 10; assay: Displacement of human CCL27-Fc from CCR10 expressed in HEK cell membranes by immunochemical binding analysis; parameters: species or system HEK293
Homo sapiens [44] = species: Homo sapiens; assay: Binding affinity to human dopamine D4.2 receptor at 10 uM relative to control
[45] = target: 5-hydroxytryptamine receptor 4 (Cavia porcellus) (UniProt O70528); assay: Binding affinity to guinea pig 5-HT4 receptor at 10 uM relative to control
[46] = target: T1, C-C chemokine receptor type 10; assay: Reversible inhibition of human CCL27-Fc binding to CCR10 expressed in HEK cell membranes by immunochemical binding assay; parameters: species or system HEK293
[47] = target: Calcitonin gene-related peptide type 1 receptor (Homo sapiens) (UniProt Q16602); assay: Binding affinity to human CGRP1 receptor at 10 uM relative to control

C-C chemokine receptor type 6, sequence (P51684 whole entry): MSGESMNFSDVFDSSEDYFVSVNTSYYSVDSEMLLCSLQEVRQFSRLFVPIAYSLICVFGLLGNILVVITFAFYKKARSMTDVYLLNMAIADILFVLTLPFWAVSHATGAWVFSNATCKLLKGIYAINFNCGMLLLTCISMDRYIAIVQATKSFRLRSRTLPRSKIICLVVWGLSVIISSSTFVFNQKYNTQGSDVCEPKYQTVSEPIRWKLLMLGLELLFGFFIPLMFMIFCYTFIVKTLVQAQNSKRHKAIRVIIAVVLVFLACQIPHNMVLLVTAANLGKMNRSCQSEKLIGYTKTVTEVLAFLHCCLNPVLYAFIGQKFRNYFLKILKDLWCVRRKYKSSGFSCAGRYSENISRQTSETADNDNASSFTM
C-C chemokine receptor type 1, sequence (P32246 whole entry): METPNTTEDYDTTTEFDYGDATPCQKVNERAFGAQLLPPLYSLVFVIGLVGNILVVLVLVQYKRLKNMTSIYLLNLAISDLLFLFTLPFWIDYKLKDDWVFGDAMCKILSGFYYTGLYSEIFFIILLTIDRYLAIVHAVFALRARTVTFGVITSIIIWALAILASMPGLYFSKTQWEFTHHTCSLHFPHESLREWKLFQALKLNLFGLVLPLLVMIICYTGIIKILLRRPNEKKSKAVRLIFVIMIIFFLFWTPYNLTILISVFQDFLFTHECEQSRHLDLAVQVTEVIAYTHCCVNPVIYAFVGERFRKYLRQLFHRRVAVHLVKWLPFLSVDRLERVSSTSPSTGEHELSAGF
5-hydroxytryptamine receptor 3A (Homo sapiens), sequence (P46098 whole entry): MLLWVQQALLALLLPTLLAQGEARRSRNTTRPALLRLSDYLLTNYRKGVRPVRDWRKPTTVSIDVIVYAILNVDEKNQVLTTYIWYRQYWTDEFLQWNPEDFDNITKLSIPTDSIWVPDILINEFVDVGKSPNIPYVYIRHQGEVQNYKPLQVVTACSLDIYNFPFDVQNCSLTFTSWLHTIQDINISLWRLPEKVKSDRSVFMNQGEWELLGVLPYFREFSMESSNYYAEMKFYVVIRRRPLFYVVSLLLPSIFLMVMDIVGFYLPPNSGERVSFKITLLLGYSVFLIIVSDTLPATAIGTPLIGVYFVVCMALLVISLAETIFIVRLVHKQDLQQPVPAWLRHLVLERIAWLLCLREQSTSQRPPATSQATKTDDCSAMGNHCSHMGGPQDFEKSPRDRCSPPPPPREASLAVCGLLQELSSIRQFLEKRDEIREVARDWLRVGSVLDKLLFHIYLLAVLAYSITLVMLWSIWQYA
C-X-C chemokine receptor type 2, sequence (P25025 whole entry): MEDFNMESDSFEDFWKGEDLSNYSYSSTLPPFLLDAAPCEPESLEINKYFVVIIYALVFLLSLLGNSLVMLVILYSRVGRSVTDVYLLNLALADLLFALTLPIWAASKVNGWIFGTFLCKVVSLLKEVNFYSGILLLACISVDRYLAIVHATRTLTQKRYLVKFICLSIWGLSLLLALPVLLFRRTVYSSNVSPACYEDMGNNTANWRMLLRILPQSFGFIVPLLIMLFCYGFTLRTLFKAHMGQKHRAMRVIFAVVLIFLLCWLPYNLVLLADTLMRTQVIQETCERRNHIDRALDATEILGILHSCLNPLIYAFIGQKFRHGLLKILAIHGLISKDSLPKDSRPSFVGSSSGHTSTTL
C-C chemokine receptor type 2, sequence (P41597 whole entry): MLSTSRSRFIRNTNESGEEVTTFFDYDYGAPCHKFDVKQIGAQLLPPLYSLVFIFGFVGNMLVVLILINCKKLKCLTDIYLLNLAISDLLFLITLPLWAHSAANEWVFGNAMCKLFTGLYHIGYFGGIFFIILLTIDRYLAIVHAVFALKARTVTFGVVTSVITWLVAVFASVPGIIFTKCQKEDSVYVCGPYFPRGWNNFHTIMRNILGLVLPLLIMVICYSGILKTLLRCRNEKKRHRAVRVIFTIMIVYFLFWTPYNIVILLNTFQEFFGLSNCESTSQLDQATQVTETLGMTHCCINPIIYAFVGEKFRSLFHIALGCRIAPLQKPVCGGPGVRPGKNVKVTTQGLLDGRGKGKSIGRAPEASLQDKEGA
Type-1 angiotensin II receptor (Homo sapiens), sequence (P30556 whole entry): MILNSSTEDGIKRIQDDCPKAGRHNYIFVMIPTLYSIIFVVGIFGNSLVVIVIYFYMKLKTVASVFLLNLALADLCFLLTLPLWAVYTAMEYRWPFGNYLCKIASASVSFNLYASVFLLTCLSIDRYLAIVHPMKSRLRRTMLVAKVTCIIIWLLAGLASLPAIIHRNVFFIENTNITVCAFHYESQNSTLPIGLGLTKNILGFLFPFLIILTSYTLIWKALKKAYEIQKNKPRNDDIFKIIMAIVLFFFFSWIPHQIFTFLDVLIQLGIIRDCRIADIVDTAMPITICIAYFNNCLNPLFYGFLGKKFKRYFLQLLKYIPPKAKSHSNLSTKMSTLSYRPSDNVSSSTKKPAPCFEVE
Histamine H2 receptor (Homo sapiens), sequence (P25021 whole entry): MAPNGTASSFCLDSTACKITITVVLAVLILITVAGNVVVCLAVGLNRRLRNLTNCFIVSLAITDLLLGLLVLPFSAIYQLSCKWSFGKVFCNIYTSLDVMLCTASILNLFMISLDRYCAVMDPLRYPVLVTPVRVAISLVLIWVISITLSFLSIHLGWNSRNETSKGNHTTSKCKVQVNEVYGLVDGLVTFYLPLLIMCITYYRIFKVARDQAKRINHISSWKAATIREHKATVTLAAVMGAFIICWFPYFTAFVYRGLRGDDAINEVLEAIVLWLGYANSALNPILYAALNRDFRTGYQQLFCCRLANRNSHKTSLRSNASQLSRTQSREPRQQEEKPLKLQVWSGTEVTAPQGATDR
5-hydroxytryptamine receptor 2A (Rattus norvegicus), sequence (P14842 whole entry): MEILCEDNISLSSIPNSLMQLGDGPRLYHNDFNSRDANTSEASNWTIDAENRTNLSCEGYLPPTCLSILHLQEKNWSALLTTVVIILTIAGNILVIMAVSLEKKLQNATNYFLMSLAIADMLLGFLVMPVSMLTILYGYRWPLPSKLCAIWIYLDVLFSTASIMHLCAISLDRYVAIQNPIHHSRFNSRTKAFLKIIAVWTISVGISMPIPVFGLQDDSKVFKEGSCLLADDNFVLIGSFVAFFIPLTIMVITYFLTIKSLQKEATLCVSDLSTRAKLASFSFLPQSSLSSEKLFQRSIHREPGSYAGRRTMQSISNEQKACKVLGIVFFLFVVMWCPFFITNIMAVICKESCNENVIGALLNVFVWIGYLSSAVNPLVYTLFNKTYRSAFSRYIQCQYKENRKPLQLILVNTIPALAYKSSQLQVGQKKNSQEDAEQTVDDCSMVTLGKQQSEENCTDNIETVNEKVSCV
B2 bradykinin receptor (Homo sapiens), sequence (P30411 whole entry): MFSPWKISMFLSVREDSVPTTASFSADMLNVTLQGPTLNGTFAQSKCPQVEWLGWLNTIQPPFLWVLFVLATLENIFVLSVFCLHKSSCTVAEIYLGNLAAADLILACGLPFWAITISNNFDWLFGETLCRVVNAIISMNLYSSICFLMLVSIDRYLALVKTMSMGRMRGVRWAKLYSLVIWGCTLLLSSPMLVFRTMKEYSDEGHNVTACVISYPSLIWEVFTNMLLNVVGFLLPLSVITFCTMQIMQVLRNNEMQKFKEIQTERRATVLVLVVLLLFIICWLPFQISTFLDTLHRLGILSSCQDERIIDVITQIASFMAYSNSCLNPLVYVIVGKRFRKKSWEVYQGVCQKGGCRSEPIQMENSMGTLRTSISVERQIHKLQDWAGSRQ
D(3) dopamine receptor (Homo sapiens), sequence (P35462 whole entry): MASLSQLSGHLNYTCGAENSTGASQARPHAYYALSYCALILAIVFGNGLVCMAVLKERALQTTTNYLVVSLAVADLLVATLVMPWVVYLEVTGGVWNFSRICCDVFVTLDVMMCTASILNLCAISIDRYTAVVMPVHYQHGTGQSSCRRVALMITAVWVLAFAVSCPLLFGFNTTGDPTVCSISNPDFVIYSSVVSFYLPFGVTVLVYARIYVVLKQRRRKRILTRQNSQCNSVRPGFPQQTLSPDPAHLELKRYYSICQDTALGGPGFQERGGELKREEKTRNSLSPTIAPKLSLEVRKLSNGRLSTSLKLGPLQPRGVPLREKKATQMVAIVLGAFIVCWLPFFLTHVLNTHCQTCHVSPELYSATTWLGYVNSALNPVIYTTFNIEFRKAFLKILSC
D(1A) dopamine receptor (Homo sapiens), sequence (P21728 whole entry): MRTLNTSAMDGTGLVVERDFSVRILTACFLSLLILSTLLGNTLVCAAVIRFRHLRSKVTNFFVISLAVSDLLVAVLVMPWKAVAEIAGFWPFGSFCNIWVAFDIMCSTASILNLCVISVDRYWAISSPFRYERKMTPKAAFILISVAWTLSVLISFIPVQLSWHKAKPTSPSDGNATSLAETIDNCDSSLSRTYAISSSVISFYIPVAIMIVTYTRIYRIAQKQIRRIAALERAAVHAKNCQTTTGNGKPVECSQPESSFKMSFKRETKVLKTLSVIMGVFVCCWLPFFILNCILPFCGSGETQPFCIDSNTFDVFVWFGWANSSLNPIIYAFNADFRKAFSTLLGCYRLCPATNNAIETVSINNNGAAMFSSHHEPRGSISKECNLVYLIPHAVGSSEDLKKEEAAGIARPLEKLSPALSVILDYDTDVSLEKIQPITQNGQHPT
C-C chemokine receptor type 5, sequence (P51681 whole entry): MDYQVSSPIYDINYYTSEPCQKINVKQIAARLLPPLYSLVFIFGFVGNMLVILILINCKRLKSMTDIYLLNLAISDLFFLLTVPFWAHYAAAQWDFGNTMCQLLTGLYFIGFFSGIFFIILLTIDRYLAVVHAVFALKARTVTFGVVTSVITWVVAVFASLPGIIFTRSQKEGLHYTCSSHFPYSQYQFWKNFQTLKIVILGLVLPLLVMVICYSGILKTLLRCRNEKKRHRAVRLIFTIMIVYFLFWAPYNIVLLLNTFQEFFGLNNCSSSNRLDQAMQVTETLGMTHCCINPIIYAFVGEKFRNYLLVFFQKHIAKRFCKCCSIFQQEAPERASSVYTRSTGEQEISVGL

| SMILES | IC50 [1] [nM] | IC50 [2] [nM] | IC50 [4] [µM] | IC50 [6] [µM] | IC50 [7] [µM] | IC50 (Histamine H4 receptor) [µM] | IC50 [8] [µM] | IC50 [9] [nM] | IC50 [10] [nM] | IC50 [11] [µM] | IC50 [12] [nM] | IC50 [13] [nM] | IC50 [14] [nM] | Activity [15] [%] | Activity [17] [%] | Activity [18] [%] | Activity [19] [%] | Activity [20] [%] | Activity (Rattus norvegicus [21]) [%] | Activity [24] [%] | further results |
| --- | --- | --- | --- | --- | --- | --- | --- | --- | --- | --- | --- | --- | --- | --- | --- | --- | --- | --- | --- | --- | --- |
| CC1CCN(C(=O)C(CCn2cccc2C#N)NS(=O)(=O)c2cccc3[nH]ccc23)CC1 (racemic) | 25.1 | 1.26 | > 10 | > 10 | > 10 | > 10 | > 10 | 2 | 63.1 | > 10 | 10 | 1 | 0.398 |  |  |  |  |  |  |  | half-life [3]: < 3 min; hepatic extraction ratio [5]: > 0.88 |
| CC1CCN(C(=O)C(CCn2cccc2C#N)NS(=O)(=O)c2cccc3[nH]ccc23)CC1 (stereo in doubt; form 1) [listing 1 of 2 here] |  |  |  |  |  |  |  |  |  |  |  |  |  | < 10 | < 10 | < 10 | < 10 | < 10 | < 10 | < 10 | inhibition (Mus musculus [16]): Dose-dependent effect; Activity (Homo sapiens [22]): < 10%; inhibition [23]: < 10%; Activity [25]: < 10%; Activity [26]: < 10%; Activity [27]: < 10%; Activity (Homo sapiens [28]): < 10%; Activity (Rattus norvegicus [29]): < 10%; Activity (Rattus norvegicus [30]): 19%; Activity [31]: < 10%; Activity [32]: < 10%; Activity (Rattus norvegicus [33]): 22%; Activity [34]: < 10%; Activity (Rattus norvegicus [35]): < 10% |
| CC1CCN(C(=O)C(CCn2cccc2C#N)NS(=O)(=O)c2cccc3[nH]ccc23)CC1 (stereo in doubt; form 1) [listing 2 of 2 here] |  |  |  |  |  |  |  | 1 | 25.1 |  |  |  |  |  |  |  |  |  |  |  | concentration at 7 h [36]: 200 nM; concentration at 1 h [37]: 3.7 µM; Time [38]: <= 8 hr; inhibition in vivo at 100 mg/kg (Mus musculus [39]): 75%; IC50 [40]: > 10 µM; concentration [41]: 7.6 µM; fraction unbound [42]: 0.01 |
| CC1CCN(C(=O)C(CCn2cccc2C#N)NS(=O)(=O)c2cc(Cl)c(N)c(Cl)c2)CC1 (stereo not given) | 158 | 12.6 | > 10 | > 10 | > 10 | > 10 | > 10 | 20 | 1580 | > 10 | 20 | 12.6 | 2 | < 10 | < 10 | < 10 | 12 | < 10 | 10 | < 10 | IC50 [43]: 3.4 nM; Activity (Homo sapiens [44]): < 10%; Activity [45]: 28%; IC50 [40]: > 10 µM; Activity [25]: < 10%; Activity [26]: < 10%; Activity [27]: < 10%; IC50 [46]: 3.4 nM; Activity [47]: < 10%; Activity (Homo sapiens [28]): < 10%; Activity (Rattus norvegicus [30]): 11%; Activity [31]: 12%; Activity [32]: 11%; Activity (Rattus norvegicus [33]): 11%; Activity [34]: < 10% |
